According to US20230295152A1 (SENDA BIOSCIENCES, INC., priority 2019, published 2023):
Read-outs that look alike come from different tables or passages of the source.

Assays:
Assay type in all cases: in vitro ADME
[1] = Hepatocyte Stability Assay, mouse; settings: mouse hepatocytes; note: tested at 1 µM
Description: Example 7: Hepatocyte Stability Assay
• Preparation of working solutions: 10 mM stock solutions of test compound and positive control were prepared in DMSO. In separate conical tubes, the 10 mM solution of test compound and the positive control were diluted to 100 μM by combining 198 μL of 50% acetonitrile/50% water and 2 μL of 10 mM stock.
Data Analysis: All calculations were carried out using Microsoft Excel. Peak areas were determined from extracted ion chromatograms. In vitro half-life (t1/2) of parent compound was determined by regression analysis of the percent parent disappearance vs. time curve.
(§1) The in vitro half-life (in vitro t1/2) was determined from the slope value:
Conversion of the in vitro t1/2 (in min) into the in vitro intrinsic clearance (in vitro CLint, in μL/min/1×10^6 cells) was done using the following equation (mean of duplicate determinations):
V=incubation volume(0.2 mL);
N=number of hepatocytes per well(0.1×10^6 cells).

[2] = Liver Microsome Stability Assay, human; settings: human liver microsomes
Description: Two separate experiments were performed as follows.
With Cofactors (NADPH): 25 μL of 10 mM NADPH was added to the incubations. The final concentrations of microsomes and NADPH were 0.5 mg/mL and 1 mM, respectively. The final concentration of microsomes was 0.5 mg/mL. The mixture was pre-warmed at 37° C. for 10 minutes. The reaction was started with the addition of 2.5 μL of 100 μM control compound or test compound solutions. Verapamil was used as positive control in this study. The final concentration of test compound or control compound was 1 μM. The incubation solution was incubated in water batch at 37° C. Aliquots of 25 μL were taken from the reaction solution at 0.5, 5, 15, 30 and 60 minutes. The reaction was stopped by the addition of 5 volumes of cold acetonitrile with IS (200 nM caffeine and 100 nM tolbutamide). Samples were centrifuged at 3, 220 g for 40 minutes. Aliquot of 100 μL of the supernatant was mixed with 100 μL of ultra-pure H2O and then used for LC-MS/MS analysis.
Data Analysis: All calculations were carried out using Microsoft Excel. Peak areas were determined from extracted ion chromatograms. The slope value, k, was determined by linear regression of the natural logarithm of the remaining percentage of the parent drug vs. incubation time curve.
as §1
Conversion of the in vitro t1/2 (min) into the in vitro intrinsic clearance (in vitro CLint, in μL/min/mg protein) was done using the following equation (mean of duplicate determinations): […]
The calculations of Scaled-up CLint(mL/min/kg), Predicted CLH (mL/min/kg) and EH were done using the following equation:
Scaled-up CLint=(0.693/t1/2)×(1/(microsomal protein concentration(0.5 mg/mL)))×Scaling Factors;Predicted CLH=(QH×Scaled-up CLint×fub)/(QH+Scaled-up CLint×fub);EH=Predicted CLH/QH
where QH is the hepatic blood flow (mL/min/kg) (Table 32), • fub is the fraction of unbound drug in plasma which is assumed to be 1.
“+++” indicates a Clint value less than 10 mL/min/Kg, […] indicates a Clint between 10 and 20 mL/min/Kg, and “+” indicates a Clint above 20 mL/min/Kg.

[3] = Plasma Protein Binding with Ultracentrifugation Method, human; settings: human plasma, 1.0 μM; read-out: Human plasma protein binding (% bound)
Description: (§2) The frozen plasma (stored at −80° C.) was thawed in a 37° C. water bath, followed by centrifugation at 3,220 g for 10 minutes to remove clots. The supernatant was removed into a new tube as the spun plasma. The spun plasma was pre-warmed in a 37° C. water bath for 10 minutes. The stock solutions of test compounds were diluted to 200 μM in DMSO, and then spiked into the plasma. Duplicate samples were prepared. The final concentration of compound was 1.0 μM. The final concentration of organic solvent was 0.5%. Warfarin was used as positive control in the assay. 1.0 mL of the spiked plasma was transferred to a new balance ultracentrifuge tube. Samples were incubated at 37° C., 5% CO2 for 30 minutes. After incubation, the balance ultracentrifuge tubes were centrifuged at 600,000 g for 5.5 hours at 37° C. After centrifugation, 50 μL solution was removed from the center of the ultracentrifuge tubes as the post-ultracentrifugation samples, followed by the addition of 50 μL blank plasma and 400 μL quench solution (acetonitrile containing internal standards (IS, 100 nM Alprazolam, 500 nM Labetalol and 2 μM Ketoprofen)) to precipitate protein and release compounds. Samples were vortexed for 2 minutes, followed by centrifugation at 20,000 g for 15 minutes at room temperature. The supernatant was diluted with ultrapure water and then used for LC-MS/MS analysis. Stability samples was prepared by transferring 50 μL of the spiked plasma to 0.6 mL tubes and incubated at 37° C., 5% CO2 for 0.5 and 6 hours. After incubation, 50 μL PBS (100 mM, pH7.4) and 400 μL quench solution were added to the stability samples. And then stability samples were treated the same way as the post-ultracentrifugation samples. The supernatant was diluted with ultrapure water and then used for LC-MS/MS analysis. 0.5 hour time point samples were also used as no-spun controls. Time 0 samples were prepared by transferring 50 μL spiked plasma to 0.6 mL tubes containing 50 μL PBS, followed by the addition of 400 μL quench solution to precipitate protein and release compound. And then these samples were treated the same way as the post-ultracentrifugation samples. The supernatant was diluted with ultrapure water and then used for LC-MS/MS analysis.
(§3) Data Analysis: All calculations were carried out using Microsoft Excel. The concentrations of test compound in plasma samples and post-ultracentrifugation plasma was determined from peak areas. The percentages of test compound bound was calculated as follows: […]
(§4) “+++” indicates a % bound value less than 50, “++” indicates a % bound value between 50 and 75, and “+” indicates a % bound value above 75.

[4] = Plasma Protein Binding with Ultracentrifugation Method, mouse; settings: mouse plasma, 1.0 μM; read-out: Mouse plasma protein binding (% bound)
Description: as §2, §3, §4

[5] = Hepatocyte Stability Assay, human; settings: human, plated hepatocytes, plated hepatocyte
[6] = Pharmaron assay, read-out: Human hepatocyte clearance Plated hepatocyte Pharmaron assay

SMILES | fraction unbound at 30 min, 1 μM [3] | fraction unbound at 30 min, 1 μM [4] | CLint scaled ([5]; Alliance assay, read-out: Human hepatocyte clearance Plated hepatocyte Alliance assay) | CLint scaled [5, 6] | Mouse hepatocyte clearance [1] | Human liver microsome clearance [2]
C[C@@H](CO)n1cnc2c(-c3cccc(F)c3)nc(-c3ccc(Cl)cc3)cc2c1=O [Compound 7] | < 0.25 | < 0.25 | – | – | ++ (“++” indicates a CLint between 20 and 50 mL/min/Kg) | +++ (“+++” indicates a Clint value less than 10 mL/min/Kg)
C[C@@H](CO)n1cnc2c(-c3cccnc3)nc(-c3ccc(C(F)(F)F)nc3)cc2c1=O [Compound 12] | < 0.25 | < 0.25 | < 20 mL/min/kg | – | ++ (“++” indicates a CLint between 20 and 50 mL/min/Kg) | +++ (“+++” indicates a Clint value less than 10 mL/min/Kg)
CC(C)(O)Cn1cnc2c(-c3cccnc3)nc(-c3ccc(C(F)(F)F)cc3)cc2c1=O [Compound 16] | < 0.25 | < 0.25 | – | < 20 mL/min/kg | ++ (“++” indicates a CLint between 20 and 50 mL/min/Kg) | +++ (“+++” indicates a Clint value less than 10 mL/min/Kg)
Cc1ccc(-c2cc3c(=O)n([C@@H](C)CO)cnc3c(-c3cccnc3)n2)cc1 [Compound 17, (S)-3-(1-hydroxypropan-2-yl)-8-(pyridin-3-yl)-6-(p-tolyl)pyrido[3,4-d]pyrimidin-4(3H)-one] | < 0.25 | < 0.25 | – | – | + (“+” indicates an CLint above 50 mL/min/Kg) | + (“+” indicates a Clint above 20 mL/min/Kg)
C[C@@H](CO)n1cnc2c(-c3cnn(C)c3)nc(-c3ccc(OC(F)(F)F)cc3)cc2c1=O [Compound 25] | – | – | – | – | – | +++ (“+++” indicates a Clint value less than 10 mL/min/Kg)
C[C@H](n1cnc2c(-c3cccnc3)nc(-c3cccnc3)cc2c1=O)C(C)(C)O [Compound 34] | – | – | – | – | – | +++ (“+++” indicates a Clint value less than 10 mL/min/Kg)

Second part, led by results:

fraction unbound at 30 min, 1 μM [3] | fraction unbound at 30 min, 1 μM [4] | CLint scaled ([5]; Alliance assay, read-out: Human hepatocyte clearance Plated hepatocyte Alliance assay) | CLint scaled [5, 6] | SMILES | Mouse hepatocyte clearance [1] | Human liver microsome clearance [2]
< 0.25 | < 0.25 | – | < 20 mL/min/kg | CC(C)(O)Cn1cnc2c(-c3cccnc3)nc(-c3ccc(Cl)cc3)cc2c1=O [Compound 18] | + (“+” indicates an CLint above 50 mL/min/Kg) | +++ (“+++” indicates a Clint value less than 10 mL/min/Kg)
< 0.25 | < 0.25 | – | – | Cn1cc(-c2nc(-c3ccc(Cl)cc3)cc3c(=O)n(CC(C)(C)O)cnc23)cn1 [Compound 21] | ++ (“++” indicates a CLint between 20 and 50 mL/min/Kg) | +++ (“+++” indicates a Clint value less than 10 mL/min/Kg)
< 0.25 | < 0.25 | – | – | C[C@@H](CO)n1cnc2c(-c3cccnc3)nc(-c3ccc(OC(F)(F)F)cc3)cc2c1=O [Compound 22] | ++ (“++” indicates a CLint between 20 and 50 mL/min/Kg) | +++ (“+++” indicates a Clint value less than 10 mL/min/Kg)
– | – | – | < 20 mL/min/kg | C[C@@H](CO)n1cnc2c(-c3cccnc3)nc(-c3ccc(C(F)(F)F)cc3)cc2c1=O [Compound 23] | – | +++ (“+++” indicates a Clint value less than 10 mL/min/Kg)
< 0.25 | – | – | – | C[C@@H](CO)n1cnc2c(-c3cnn(C)c3)nc(-c3ccc(Cl)cc3)cc2c1=O [Compound 27] | – | +++ (“+++” indicates a Clint value less than 10 mL/min/Kg)
